For data set [1], the system named is Male Sprague-Dawley rats. Particulars: serum, after treatment.
Description: Consequently, serum ACE activity was estimated in animals before and after administration of gentamicin using the synthetic ACE-specific substrate, hippuryl-histidyl-leucine (Shihabi and Scaro, 1981). The released product (His-Leu) was fluorimetrically measured after reaction with ophthaldehyde in time-fixed assays. Briefly, 20 μl of 10 times diluted plasma was mixed with 20 μl Hip-His-Leu (final conc.=1 mM) made up to 50 μl with 10 μL of 100 mM Tris-HCl, 300 mM NaCl, pH 8.3. The samples were then mixed and incubated in 37° C. water bath for 30 minutes. To detect the generated His-Leu, 120 μl of 0.3 N NaOH and 10 μl o-phthaldehyde were then added and the samples briefly vortexed and incubated at room temperature for 10 minutes. To terminate the derivitisation reaction, 20 μl of 3N HCl was added and the samples centrifuged for 5 minutes at 15, 000 rpm to remove insoluble residue. The resulting supernatant was transferred to a black 96 well plate and fluorescence read at excitation=355 nm, emission=485 nm in a fmax fluorescence detector (Molecular Biosystems, USA). Results were corrected for blank fluorescence detected in the absence of Hip-His-Leu. Results are expressed as nmol of His-Leu generated per minute of reaction time per ml of plasma (nmol/min/ml).
The test system of data set [2] is Male Sprague-Dawley rats. In words: Gentamicin nephrotoxicity model: serum and urine biochemistry, renal function, kidney weight after 8 days of treatment. The method, then: Group 1 (Gentamicin): These animals received timed daily subcutaneous injections of gentamicin (50 mg/kg/d) in divided doses, delivered during the resting period, for 8 consecutive days.
Group 3 (Sham): These animals received twice daily subcutaneous injections of equivalent amount of vehicle (0.9% NaCl) according to the same timed protocol for 8 consecutive days.
Kidneys were harvested and blood collections were performed. […] One kidney was immediately removed for histological examination.
(Roche Diagnostics, Basel, Switzerland). […] Gentamicin standards were prepared in normal rat sera.
Serum and urine creatinine were measured by HPLC.

For data set [3] the following is noted: prospective studies, gentamicin for over 7 days; cited from earlier work.
In data set [4] the test system is Male Sprague-Dawley rats. As to the kind of experiment: Morphological examination of the kidney (PAS, propidium iodide apoptosis, GPX-3 in situ hybridization). Type of data set: in vivo, rat. The method, then:
Paraffin embedded sections were stained with periodic acid-Schiff (PAS) and examined by light microscopy to determine the extent of gentamicin toxicity (Kopple et al., 2002). In addition, tubular apoptosis was assessed by staining for DNA fragmentation using propidium iodide. Briefly, sections (3 μm) from the same paraffin blocks used for PAS staining were de-paraffinised with xylene and rehydrated, soaked with PBS pH 7.4 and incubated for 10 minutes with propidium iodide 10 μg/ml and RNAse A 100 μg/ml at 37° C. Sections were subsequently washed extensively with PBS, rinsed with distilled water and mounted with an aqueous media (AFT, Behring Diagnostics, Somerville, N.J.). On a fluorescence microscope, renal tissue was identified on bright field and then, using a rhodamine filter set, the normal and apoptotic tubular nuclei were counted. Twenty cortical windows were assessed in each animal. The results were expressed as a mean number of fragmented and condensed nuclei (apoptotic cells) per window. As a marker of proximal tubular injury, renal gene expression of extracellular glutathione peroxidase, GPX-3 (Yazar et al., 2003) was also assessed in paraffin fixed sections by in situ hybridization

The subject of data set [5] is Male Sprague-Dawley rats. As to the kind of experiment: Urinary nitrate/nitrite (NOx) excretion by Griess reaction. Type of data set: in vivo, rat. As to conditions: per mg creatinine, after treatment. As for the experimental part:
As a marker of renal NO generation, daily excretion of urinary nitrate/nitrite (NOx) was measured using the Griess reaction (Komers et al., 1994; Miranda et al., 2001). Briefly, 0.5 ml of urine was centrifuged at 10,000 g for 15 minutes, the supernatant removed and diluted fivefold using deionised water. From each sample 50 μl was dispensed into a 96-well plate followed by 50 μl of freshly prepared vanadium chloride solution (0.8 mg/ml in 1M HCl) and immediately followed by 50 μl of Griess reagent (2% sulphanilamide in 1.47M hydrochloric acid) and 0.1% N-(1-aphthyl)ethylenediamine dihydrochloride in deionised water. […] Each sample was assayed in triplicate. Urinary NOx excretion was expressed as μmol/mg creatinine.
On the technique in general: Nitrite, measured by Griess reagent, commonly stands in for NO production.

For data set [6], the system named is Male Sprague-Dawley rats. In words: Oxidation, lipoxidation and glycation products (AOPP, MDA-linked fluorescence, AGE fluorescence, LMW-AGEs, CML staining). The method, then: Serum and tissue advanced oxidation products (AOPP) were measured by spectrophotometric methods (Martin-Gallan et al., 2003). This assay largely detects the presence of protein dityrosine modifications (Witko-Sarsat et al., 2003). Briefly, 200 μl of homogenised renal tissue or serum was diluted 1:3 in PBS, 100 μL of 1.16 mol/L potassium iodide (KI, Sigma) were then added to each tube, followed two minutes later by 200 μL of concentrated acetic acid. […] Concentrations of AOPP were expressed as arbitrary units calibrated to a chloramine T standard.
Tissue-linked glycoxidation products were measured, based on tissue fluorescence using a flow injection assay (Wrobel et al., 1998). Briefly, renal tissue was enymatically hydrolysed using proteinase K. The solution was then centrifuged to remove sediment and the aqueous phase injected directly into a water column flowing through a fluorescence detector (Waters 470, Waters USA) and UV detector (Hewlett-Packard, USA) in series. Pentosidine-linked fluorescence was measured at excitation 325 nm with an emission at 385 nm (Meng et al., 2000). The level of lipid peroxidation was estimated by determining the malondialdehyde (MDA)-linked fluorescence (390 nm/emission 460 nm) (Meng et al., 1998). The values of fluorescence were corrected against those of the blanks containing the same concentration of proteinase K and adjusted for the peptide content using the absorbance at 280 nm. The data were expressed in arbitrary units, with […] being given the reference value of 1. Finally, paraffin sections were stained for CML-AGEs

For data set [7], the system named is Escherichia coli (ATCC 25922). In words: Bactericidal studies: MIC of gentamicin in presence and absence of aminoguanidine. Type of data set: cell-based. As for the experimental part:
A standardised E coli (ATCC 25922) was then inoculated into the broth and the lowest concentration of gentamicin to inhibit the growth of the bacterium determined (MIC). Results are expressed in milligrams of gentamicin per litre. Studies were performed in duplicate on two separate occasions by a blinded operator. A clinically significant change was defined as an increase in the MIC by two or more doubling dilutions.

The conditions of data set [8]: cited from earlier work.
A short description of data set [9]: Serum and renal cortical gentamicin levels. Type of data set: in vivo, rat. As for the experimental part:
(Roche Diagnostics, Basel, Switzerland). […] Gentamicin standards were prepared in normal rat sera. […] To measure the gentamicin concentrations in the renal cortex, the kidney was processed and analysed. The upper pole of the vertically divided right kidney was removed and snap-frozen at minus 80° C. until use. […] After centrifugation, a 100 μl aliquot of the supernatant was used immediately for gentamicin determination by HPLC. […] Fluorescence detection was set at excitation 340 nm, emission 418 nm. The […] gentamicin peak was used to quantify the total gentamicin content. Calibration curves of the components were prepared in a drugfree supernatant of the renal homogenates and were linear over the concentration range 50-500 μg/ml. […] Renal cortical gentamicin concentrations were expressed per milligram of renal cortical protein.

Data set [10] concerns Male Sprague-Dawley rats. As to the kind of experiment: Serum and urine parameters after aminoguanidine pre-treatment but before gentamicin therapy. As to conditions: p<0.05.
Description: Male Sprague-Dawley rats were randomly assigned to one of three groups:
Group 2 (Gentamicin+aminoguanidine): rats received aminoguanidine 4 g/L in their drinking water for 2 weeks, prior to gentamicin dosing as described above.
Prior to gentamicin dosing and on day 7 of the study, animals were placed individually in metabolic cages and 24 h urine collected and food intake recorded. Blood was collected into heparinised tubes, after being obtained from the tail of each rat, at baseline and on days 2 and 5. The blood samples were always obtained before the daily injections were given, as well as being taken 24 hours following the last injection and at the time of sacrifice. […]
Standard physiological and biochemical parameters including body weight and food and water intake, were measured before and after gentamicin dosing regimens. […] Serum gentamicin was measured in serum by a polarisation fluorescence immunoassay in a TDx analyser (Abbott Diagnostics, Abbott Park, Ill., USA). […] To quantify enzymuria, urinary excretion of alanine transaminase (ALT), aspartate transferase (AST), alkaline phosphatase (AP) and lactate dehydrogenase (LDH) were measured using a Hitachi 747 Automatic Analyser, as above. […] Therefore the urinary excretion of the electrolytes were measured in this experimental protocol and expressed as the fractional excretion (FE), which is calculated as: FEx(%)=(Ux×PCr)/(Px×UCr) […]
[11] abbreviates: following 8-days of treatment, Mean ± SEM.
[12] abbreviates: serum, following 8-days of treatment, Mean ± SEM.

In the case of `CNC(C)C1CCC(N)C(OC2C(N)CC(N)C(OC3OCC(C)(O)C(NC)C3O)C2O)O1` (stereo not drawn) [Gentamicin, gentamicin], the ACE activity in data set [1] came to 5.1 ± 0.4 nmol/mL/min. The Normalised kidney weight result in data set [2] (FIG. 2, aminoguanidine group also received gentamicin) is “significantly higher”. Moreover, the “Renal blood flow as estimated by the clearance of endogenous hippurate” value in data set [2] (after 8 days gentamicin, aminoguanidine group also received gentamicin) is 8.1 ± 1.1 mL/min. In addition, the “Urine Volume” value in data set [2] (following 8-days of treatment, gentamicin 50 mg/kg/d s.c., Mean ± SEM) was found to be 29 ± 6 mL/day. In [2] (setting [11]), the FeCa is 6 ± 3%, the FeK was found to be 70 ± 20 %, the FeMg turned out to be 21 ± 5 % and the “Urine ALT” value is listed as 10.5 ± 4.6 U/ml. Further, in data set [2] (setting [11]), the “Urine AP” value is 119 ± 29 U/ml, the “Urine AST” value came to 147 ± 62 U/ml and the “Urine LDH” value is 489 ± 100 U/ml. The compound further had a Creatinine clearance in data set [2] (following 8-days of treatment, Mean ± SEM, none in table head) of 1.3 ± 0.3 mL/min. In addition, the “Fall in creatinine clearance compared to untreated animals” value in [2] (gentamicin alone, 8 days) is “greater than 50%”. Further, the “Serum LDH” value in [2] (marker of renal injury, after treatment) amounted to 380 ± 76 IU/ml. Further, in [2] (setting [12]), the Creatinine worked out at 122 ± 55 µM and the Urea is 20.1 ± 5.6 mM. In [3], the “Patients showing signs of nephrotoxicity” value is listed as “up to 50%”. In addition, in [4] (FIG. 3, after 8 days of treatment), the “Tubular necrosis (PAS histology of renal cortex)” value is “extensive and marked tubular necrosis”. Besides, the “Tubular expression of glutathione peroxidase-3” value in data set [4] (FIG. 4, in situ hybridization, aminoguanidine group also received gentamicin) is reported as “significantly reduced”. In addition, in data set [4] (tubular nuclei, propidium iodide, aminoguanidine group also received gentamicin), the “Fragmented and condensed nuclei (apoptotic cells) per field” value is listed as 12±2 per field. For the same compound, the “Urine NOx” value in data set [5] turned out to be 4.1 ± 0.4 µmol/mg. For the same compound, in data set [6] (FIG. 7, aminoguanidine group also received gentamicin), the “Staining for CML-AGE in kidney” value was “substantially increased”. The “Serum AOPPs” value in data set [6] (FIG. 8) is on record as “elevated to approximately the same extent”. In addition, the “Serum MDA-linked fluorescence” value in [6] (FIG. 8, compared to sham animals or those receiving aminoguanidine) is given as “elevated”. In data set [6] (after 8 days, aminoguanidine group also received gentamicin), the “Circulating levels of LMW-AGEs” value is given as “elevated to over twice the level seen in untreated animals”. In addition, the “Cortical AGE-fluorescence” value in data set [6] (arbitrary units, untreated 1.0±0.3, p=NS) turned out to be 1.2±0.3. The MIC for gentamicin in [7] (in the absence of aminoguanidine) amounted to 0.2 µg/mL. In addition, the MIC for gentamicin in data set [7] (in the presence of aminoguanidine at 10 μg/ml) came to 0.3 µg/mL. In data set [7] (in the presence of aminoguanidine at 100 μg/ml), the MIC for gentamicin was found to be 0.2 µg/mL. The MIC for gentamicin in data set [7] (in the presence of aminoguanidine at 1 mg/ml) was found to be 0.5 µg/mL.

Regarding `N=C(N)NN` [aminoguanidine], in [8], the Half life was 4 h. In addition, the “Reduction of gentamicin content of the renal cortex” value in data set [9] (FIG. 5, after 8 days, aminoguanidine co-administered with gentamicin, vs gentamicin alone, p<0.001) is listed as “approximately two thirds”. The “Serum gentamicin levels at day 2 and day 5” value in [9] (effect of co-administration of aminoguanidine) is reported as “unaffected”. In [2] (rat, in vivo), the Normalised kidney weight entry was “reduced the renal weight” and the “Renal blood flow as estimated by the clearance of endogenous hippurate” value was 12.1 ± 1.1 mL/min. Also, the Urinary potassium excretion result in data set [10] is “reduced”. In data set [4] (rat, in vivo), the “Fragmented and condensed nuclei (apoptotic cells) per field” value was 1-2 per field; the “Tubular expression of glutathione peroxidase-3” value was “not significantly changed”. In data set [6] (rat, in vivo), the “Staining for CML-AGE in kidney” value was “able to reduce staining for CML-AGE”.

(Values after patent US20060247187A1, “Attenuation of disorders by aminoglycosides” (priority 2005, published 2006).)
